Laboratory results published in US20160193165A1, “NOVEL POLYMORPHS AND SALTS” (CHIESI FARMACEUTICI S.p.A., priority 2010, published 2016).

Columns and labels:
[1] = Thermodynamic solubility of salts in water; type: physicochemical; conditions: for Solubility: 37° C., pH 6.8-7.4, stirring 500 rpm, 24 hours
Protocol: Each of the sodium, potassium, L-Arg and L-Lys salts prepared as described above was dissolved in water at a temperature of 37° C., pH 6.8-7.4 at a stirring rate of 500 rpm for 24 hours.

[2] = Stability of salts on storage at room temperature and 80% relative humidity (XRPD); type: physicochemical; conditions: for changes in the XRPD pattern after storage: 7 days at room temperature and 80% relative humidity
Protocol: Each of the salts obtained was characterized by X-ray powder diffraction (XRPD), Thermogravimetric analysis (TGA), and Differential Scanning calorimetry (DSC). Furthermore, the stabilities of the sodium, potassium, L-Arginine and L-Lysine salts were tested by storage for 7 days at room temperature and 80% relative humidity.

| SMILES | solubility in water (in words) [1] | Solubility [1] | changes in the XRPD pattern after storage [2] | stability when stored under conditions of high humidity (in words) [2] |
| --- | --- | --- | --- | --- |
| O=C(O)C1(c2ccc(-c3ccc(Cl)c(Cl)c3)c(F)c2)CC1 [L-Lysine, 1-(3′,4′-dichloro-2-fluorobiphenyl-4-yl)cyclopropanecarboxylic acid] | excellent solubility | 36.6 g/L | No changes | good stability |
| O=C(O)C1(c2ccc(-c3ccc(Cl)c(Cl)c3)c(F)c2)CC1 [Potassium, 1-(3′,4′-dichloro-2-fluorobiphenyl-4-yl)cyclopropanecarboxylic acid] | excellent solubility | 6.3 g/L | No changes | good stability |
| O=C(O)C1(c2ccc(-c3ccc(Cl)c(Cl)c3)c(F)c2)CC1 [L-Arginine, 1-(3′,4′-dichloro-2-fluorobiphenyl-4-yl)cyclopropanecarboxylic acid] | excellent solubility | 15.2 g/L | No changes | good stability |
| O=C(O)C1(c2ccc(-c3ccc(Cl)c(Cl)c3)c(F)c2)CC1 [Sodium, 1-(3′,4′-dichloro-2-fluorobiphenyl-4-yl)cyclopropanecarboxylic acid] | excellent solubility | 20.4 g/L | No changes | good stability |
